Measurements taken from patent US20100130620A1, “NOVEL USE OF HYDROXYTYROSOL AND OLIVE EXTRACTS/CONCENTRATES CONTAINING IT” (priority 2007, published 2010).

Tests used:
ARPE-19 cells = experiment: JC-1 assay for mitochondrial membrane potential; type: cell-based, human; conditions: 10-100 μM HTS, no acrolein
Experimental: (§1) The human ARPE-19 cells (a human retinal pigment epithelial cell-line) were maintained in DMEM-F12 medium (Dulbecco's modified Eagle's medium) supplemented with 10% fetal bovine serum, 0.348% sodium bicarbonate, 2 mM L-glutamine, 100 U/mL penicillin and 100 μg/ml streptomycin. Cell cultures were maintained at 37° C. in a humidified atmosphere of 95% air and 5% CO2. The medium was changed every 3 to 4 days. ARPE-19 cells were used within 10 generations.
All experiments were performed with an 80% confluence monolayer grown in 96-well plates or 6 well plates. Hydroxytyrosol (HTS) was dissolved in DMSO (dimethyl sulfoxide). Acrolein was dissolved in PBS (phosphate buffer salt) each time immediately before an experiment. For the acute toxicity study, cells were exposed to acrolein for 24 hours. […]
Mitochondrial potential change (ΔΨ) was assessed in live APRE-19 cells using the lipophilic cationic probe 5,5′,6,6′-tetrachloro-1,1′,3,3′-tetraethylbenzimidazol-carbocyanine iodine (JC-1). For quantitative fluorescence measurement, cells were rinsed once after JC-1 staining and scanned with a multi-label counter (Wallac 1420; PerkinElmer Life Sciences, Wellesley, Mass.) at 485 nm excitation and 535 nm and 590 nm emission, to measure green and red JC-1 fluorescence respectively. […]

human ARPE-19 cells = type: cell-based
Experimental: as §1
All experiments were performed with an 80% confluence monolayer grown in 96-well plates or 6 well plates. Hydroxytyrosol (HTS) was dissolved in DMSO (dimethyl sulfoxide). Acrolein was dissolved in PBS (phosphate buffer salt) each time immediately before an experiment. For the acute toxicity study, cells were exposed to acrolein for 24 hours. The protective effects of HTS (Hydroxytyrosol) were studied with the acute toxicity model by pre-treating cells with HTS for 48 hours or for 7 days.
The MTT assay reduction assay was used as a […] index of cell viability. The optical densities were read at 555 nm using a microplate spectrophotometer (Spectra Max 340, Molecular Dabices, Sunnyvale, Calif.). Absorbance values were normalized with untreated cells to calculate the changes in cell viability.
The ARPE-19 cells were seeded at 4×10^4 per well in a 96 well plate. […]

## OCCc1ccc(O)c(O)c1 [HTS, 3,4-dihydroxyphenyl ethanol]
ARPE-19 cells
  effect of HTS itself on mitochondrial membrane potential: no apparent effect on mitochondrial membrane potential
Human ARPE-19 cells; 10-100 μM HTS, ARPE-19, no acrolein, FIG. 1
  effect of HTS itself on cell viability: no apparent effect on cell viability
Human ARPE-19 cells; pretreatment, 75 μM acrolein 24 hours
  HTS concentration range protecting against acute acrolein-induced decrease in cell viability: 10 to 20 µM
